Test results: PubChem BioAssay (NCI)
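1) Cells in 96-well plates. 2) Compound, 48 h, 5 concentrations. 3) Linear interpolation between surrounding doses. 4) Unreached endpoint = highest concentration. TGI is the concentration that stops growth completely.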

Experiments:
Assay in all cases: growth of human tumour cells (NCI), 48 h
[1] = tested on: SN12C renal
[2] = tested on: MDA-MB-231 breast
[3] = tested on: MDA-MB-435
[4] = tested on: DU-145 prostate
[5] = tested on: BT-549 breast
[6] = tested on: OVCAR-4 ovarian
[7] = tested on: SR leukemia
[8] = tested on: CCRF-CEM leukemia
[9] = tested on: LOX IMVI melanoma
[10] = tested on: SF-295 CNS
[11] = tested on: EKVX NSCLC
[12] = tested on: COLO 205 colon
[13] = tested on: OVCAR-3 ovarian
[14] = tested on: MALME-3M melanoma
[15] = tested on: MCF7 breast
[16] = tested on: KM12 colon
[17] = tested on: OVCAR-5 ovarian
[18] = tested on: OVCAR-8 ovarian
[19] = tested on: UACC-257 melanoma
[20] = tested on: NCI-H460 lung
[21] = tested on: 786-0 renal
[22] = tested on: NCI-H23 lung
[23] = tested on: SK-MEL-2 melanoma
[24] = tested on: HT29 colon
[25] = tested on: RPMI-8226 leukemia
[26] = tested on: HCT-15 colon
[27] = tested on: CAKI-1 renal
[28] = tested on: SW-620 colon
[29] = tested on: A549 NSCLC
[30] = tested on: MDA-N
[31] = tested on: SF-268 CNS
[32] = tested on: HCT-116 colon
[33] = tested on: ACHN renal
[34] = tested on: SNB-19 CNS
[35] = tested on: HOP-62 NSCLC
[36] = tested on: T-47D breast
[37] = tested on: NCI-H226 lung
[38] = tested on: RXF 393 renal
[39] = tested on: HOP-92 NSCLC
[40] = tested on: U251 CNS
[41] = tested on: NCI/ADR-RES ovarian
[42] = tested on: NCI-H522 lung
[43] = tested on: UO-31 renal
[44] = tested on: MOLT-4 leukemia
[45] = tested on: TK-10 renal
[46] = tested on: M14 melanoma
[47] = tested on: K-562 leukemia
[48] = tested on: HCC-2998 colon
[49] = tested on: PC-3 prostate
[50] = tested on: HL-60(TB) leukemia
[51] = tested on: IGROV1 ovarian
[52] = tested on: SK-MEL-5 melanoma
[53] = tested on: SF-539 CNS
[54] = tested on: A498 renal
[55] = tested on: UACC-62 melanoma
[56] = tested on: SK-MEL-28 melanoma
[57] = tested on: SK-OV-3 ovarian
[58] = tested on: HS 578T breast
[59] = tested on: SNB-75 CNS

## CC(C)(/C=N\O)NO
[1]
  TGI: > 10 µM
[2]
  TGI: > 10 µM
[3]
  TGI: > 10 µM
[4]
  TGI: > 10 µM
[5]
  TGI: > 10 µM
[6]
  TGI: > 10 µM
[7]
  TGI: > 10 µM
[8]
  TGI: > 10 µM
[9]
  TGI: > 10 µM
[10]
  TGI: > 10 µM
[11]
  TGI: > 10 µM
[12]
  TGI: > 10 µM
[13]
  TGI: > 10 µM
[14]
  TGI: > 10 µM
[15]
  TGI: > 10 µM
[16]
  TGI: > 10 µM
[17]
  TGI: > 10 µM
[18]
  TGI: > 10 µM
[19]
  TGI: > 10 µM
[20]
  TGI: > 10 µM
[21]
  TGI: > 10 µM
[22]
  TGI: > 10 µM
[23]
  TGI: > 10 µM
[24]
  TGI: > 10 µM
[25]
  TGI: > 10 µM
[26]
  TGI: > 10 µM
[27]
  TGI: > 10 µM
[28]
  TGI: > 10 µM
[29]
  TGI: > 10 µM
[30]
  TGI: > 10 µM
[31]
  TGI: > 10 µM
[32]
  TGI: > 10 µM
[33]
  TGI: > 10 µM
[34]
  TGI: > 10 µM
[35]
  TGI: > 10 µM
[36]
  TGI: > 10 µM
[37]
  TGI: > 10 µM
[38]
  TGI: > 10 µM
[39]
  TGI: > 10 µM
[40]
  TGI: > 10 µM
[41]
  TGI: > 10 µM
[42]
  TGI: > 10 µM
[43]
  TGI: > 10 µM
[44]
  TGI: > 10 µM
[45]
  TGI: > 10 µM
[46]
  TGI: > 10 µM
[47]
  TGI: > 10 µM
[48]
  TGI: > 10 µM
[49]
  TGI: > 10 µM
[50]
  TGI: > 10 µM

## O=C(NNC(=O)c1ccccc1O)c1ccccc1O
[1]
  TGI: > 100 µM
[2]
  TGI: > 100 µM
[3]
  TGI: > 100 µM
[4]
  TGI: > 100 µM
[5]
  TGI: > 100 µM
[7]
  TGI: > 31.1 µM
[8]
  TGI: > 100 µM
[9]
  TGI: > 100 µM
[10]
  TGI: > 100 µM
[11]
  TGI: > 100 µM
[12]
  TGI: > 38.9 µM
[51]
  TGI: > 34.8 µM
[13]
  TGI: > 100 µM
[14]
  TGI: > 100 µM
[15]
  TGI: > 100 µM
[16]
  TGI: > 100 µM
[17]
  TGI: > 100 µM
[52]
  TGI: > 34.5 µM
[18]
  TGI: > 100 µM
[20]
  TGI: > 100 µM
[21]
  TGI: > 100 µM
[22]
  TGI: > 100 µM
[23]
  TGI: > 100 µM
[24]
  TGI: > 100 µM
[25]
  TGI: > 100 µM
[26]
  TGI: > 100 µM
[27]
  TGI: > 100 µM
[28]
  TGI: > 100 µM
[29]
  TGI: > 100 µM
[30]
  TGI: > 100 µM
[31]
  TGI: > 58.4 µM
[32]
  TGI: > 100 µM
[33]
  TGI: > 100 µM
[34]
  TGI: > 100 µM
[35]
  TGI: > 100 µM
[36]
  TGI: > 78.4 µM
[37]
  TGI: > 100 µM
[39]
  TGI: > 100 µM
[40]
  TGI: > 100 µM
[53]
  TGI: 6.16 µM
[41]
  TGI: > 100 µM
[42]
  TGI: 3.6 µM
[43]
  TGI: > 100 µM
[54]
  TGI: > 100 µM
[44]
  TGI: > 91.7 µM
[55]
  TGI: > 100 µM
[56]
  TGI: > 100 µM
[45]
  TGI: > 100 µM
[46]
  TGI: 25.4 µM
[47]
  TGI: > 100 µM
[57]
  TGI: > 100 µM
[49]
  TGI: > 100 µM
[50]
  TGI: 0.944 µM

## Cc1[nH]c2nccn2c(=O)c1CCCl
[1]
  TGI: 45.4 µM
[2]
  TGI: > 100 µM
[4]
  TGI: 66.7 µM
[5]
  TGI: 62.5 µM
[6]
  TGI: 40 µM
[7]
  TGI: 90.7 µM
[8]
  TGI: 85.4 µM
[9]
  TGI: 33.6 µM
[10]
  TGI: > 100 µM
[58]
  TGI: > 100 µM
[11]
  TGI: > 100 µM
[12]
  TGI: > 100 µM
[51]
  TGI: 61.8 µM
[13]
  TGI: 62.1 µM
[14]
  TGI: 41.3 µM
[15]
  TGI: > 100 µM
[16]
  TGI: 42.2 µM
[17]
  TGI: > 100 µM
[52]
  TGI: 31.3 µM
[18]
  TGI: 87.6 µM
[19]
  TGI: > 100 µM
[20]
  TGI: 49.5 µM
[21]
  TGI: 64.6 µM
[22]
  TGI: 41.6 µM
[24]
  TGI: > 100 µM
[25]
  TGI: 62.9 µM
[26]
  TGI: > 100 µM
[28]
  TGI: 50.8 µM
[29]
  TGI: > 100 µM
[30]
  TGI: 46.6 µM
[31]
  TGI: > 100 µM
[32]
  TGI: 32.3 µM
[33]
  TGI: 55 µM
[34]
  TGI: > 100 µM
[35]
  TGI: 60 µM
[36]
  TGI: > 100 µM
[37]
  TGI: > 100 µM
[38]
  TGI: 38.9 µM
[59]
  TGI: > 100 µM
[39]
  TGI: 66.1 µM
[40]
  TGI: 43.8 µM
[53]
  TGI: 36.6 µM
[41]
  TGI: 58.1 µM
[42]
  TGI: 49.9 µM
[43]
  TGI: 91.4 µM
[54]
  TGI: 61.8 µM
[44]
  TGI: 52.9 µM
[55]
  TGI: 53.7 µM
[56]
  TGI: > 100 µM
[45]
  TGI: 96.7 µM
[46]
  TGI: > 100 µM
[47]
  TGI: 93.5 µM
[48]
  TGI: 34.1 µM
[57]
  TGI: 63 µM
[49]
  TGI: > 100 µM
[50]
  TGI: 57.2 µM

## O=CNCCCN1CCN(CCCNC=O)CC1
[1]
  TGI: > 100 µM
[2]
  TGI: > 100 µM
[3]
  TGI: > 100 µM
[4]
  TGI: > 100 µM
[5]
  TGI: > 100 µM
[6]
  TGI: > 100 µM
[7]
  TGI: > 100 µM
[8]
  TGI: > 100 µM
[9]
  TGI: > 100 µM
[10]
  TGI: > 100 µM
[11]
  TGI: > 100 µM
[12]
  TGI: > 100 µM
[51]
  TGI: > 100 µM
[13]
  TGI: > 100 µM
[15]
  TGI: > 100 µM
[16]
  TGI: > 100 µM
[17]
  TGI: > 100 µM
[52]
  TGI: > 100 µM
[18]
  TGI: > 100 µM
[19]
  TGI: > 100 µM
[21]
  TGI: > 100 µM
[22]
  TGI: > 100 µM
[23]
  TGI: > 100 µM
[24]
  TGI: > 100 µM
[25]
  TGI: > 100 µM
[26]
  TGI: > 100 µM
[27]
  TGI: > 100 µM
[28]
  TGI: > 100 µM
[29]
  TGI: > 100 µM
[30]
  TGI: > 100 µM
[31]
  TGI: 9.78 µM
[32]
  TGI: > 100 µM
[33]
  TGI: > 100 µM
[34]
  TGI: > 100 µM
[35]
  TGI: > 100 µM
[36]
  TGI: > 100 µM
[37]
  TGI: > 100 µM
[39]
  TGI: > 100 µM
[40]
  TGI: > 100 µM
[53]
  TGI: > 100 µM
[41]
  TGI: > 100 µM
[42]
  TGI: 4.07 µM
[43]
  TGI: > 100 µM
[54]
  TGI: > 100 µM
[44]
  TGI: > 100 µM
[55]
  TGI: > 100 µM
[56]
  TGI: > 100 µM
[45]
  TGI: > 100 µM
[46]
  TGI: > 100 µM
[47]
  TGI: > 100 µM
[48]
  TGI: > 100 µM
[57]
  TGI: > 100 µM
[49]
  TGI: > 100 µM
[50]
  TGI: > 100 µM

## COc1cc(Br)cc2cc(C3=CSC4=NCCN34)c(=O)oc12
[1]
  TGI: 32 µM
[2]
  TGI: 36 µM
[3]
  TGI: 33.9 µM
[4]
  TGI: 33 µM
[5]
  TGI: 42.2 µM
[6]
  TGI: 37.2 µM
[7]
  TGI: 63.4 µM
[8]
  TGI: 56.8 µM
[9]
  TGI: 33.7 µM
[10]
  TGI: 35.8 µM
[11]
  TGI: 32.3 µM
[12]
  TGI: 43.5 µM
[51]
  TGI: 32.5 µM
[13]
  TGI: 33.1 µM
[15]
  TGI: 33 µM
[16]
  TGI: 39 µM
[17]
  TGI: 54.5 µM
[52]
  TGI: 35.3 µM
[18]
  TGI: 34.4 µM
[19]
  TGI: 65.8 µM
[20]
  TGI: 40.3 µM
[21]
  TGI: 32.7 µM
[22]
  TGI: 40.8 µM
[23]
  TGI: 40 µM
[24]
  TGI: 34.7 µM
[25]
  TGI: 55.3 µM
[26]
  TGI: 37.2 µM
[27]
  TGI: > 100 µM
[28]
  TGI: 49.1 µM
[29]
  TGI: 50.8 µM
[30]
  TGI: 34.4 µM
[32]
  TGI: 32.2 µM
[33]
  TGI: 80.6 µM
[34]
  TGI: 33.4 µM
[35]
  TGI: 34.9 µM
[36]
  TGI: 42.2 µM
[38]
  TGI: 34.6 µM
[59]
  TGI: 43.3 µM
[39]
  TGI: 36.7 µM
[40]
  TGI: 32.6 µM
[53]
  TGI: 37.4 µM
[41]
  TGI: > 100 µM
[43]
  TGI: 35.6 µM
[44]
  TGI: 69.5 µM
[55]
  TGI: 33.6 µM
[56]
  TGI: 59.4 µM
[45]
  TGI: 34.8 µM
[46]
  TGI: 49.4 µM
[47]
  TGI: > 100 µM
[57]
  TGI: 66.2 µM
[49]
  TGI: 35.6 µM
[50]
  TGI: 77.6 µM
